Results: patent US10597388B2, “Pyridazinone herbicides” (FMC CORPORATION, priority 2014, dated 2020)

Legend:
Experiment in all cases: Test E greenhouse herbicide test, pre- and postemergence
Type in all cases: in vivo
[1] = tested on: arrowleaf sida (Sida rhombifolia)
Summary of the method: (§1)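 Compounds in a non-phytotoxic solvent mixture with surfactant were applied preemergence to seeds in silt loam soil and postemergence to 2-18 cm plants (1- to 4-leaf stage) in peat-based medium. After 14 to 21 d in a greenhouse, injury was rated visually against untreated controls on a 0 (no effect) to 100 (complete control) scale.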

[2] = tested on: barnyardgrass (Echinochloa crus-galli)
Summary of the method: as §1

corn (Zea mays) = tested on: corn (Zea mays)
Summary of the method: as §1

[3] = tested on: crabgrass, Brazilian (Brazilian crabgrass, Digitaria horizontalis)
Summary of the method: as §1

[4] = tested on: dayflower (Virginia (VA) dayflower, Commelina virginica)
Summary of the method: as §1

[5] = tested on: field bindweed (Convolvulus arvensis)
Summary of the method: as §1

[6] = tested on: foxtail, green (green foxtail, Setaria viridis); conditions: Preemergence
Summary of the method: as §1

[7] = tested on: goosegrass (Eleusine indica); conditions: Preemergence
Summary of the method: as §1

[8] = tested on: horseweed (Conyza canadensis)
Summary of the method: as §1

[9] = tested on: lambsquarters (Chenopodium album); conditions: Preemergence
Summary of the method: as §1

[10] = tested on: nightshade (eastern black nightshade, Solanum ptycanthum); conditions: Preemergence
Summary of the method: as §1

[11] = tested on: panicum, fall (fall panicum, Panicum dichotomiflorum)
Summary of the method: as §1

[12] = tested on: pigweed, palmer (palmer pigweed, Amaranthus palmeri)
Summary of the method: as §1

[13] = tested on: ragweed (common ragweed, Ambrosia elatior)
Summary of the method: as §1

soybean (Glycine max) = tested on: soybean (Glycine max)
Summary of the method: as §1

[14] = tested on: surinam grass (Brachiaria decumbens); conditions: Preemergence
Summary of the method: as §1

[15] = 62 g ai/ha, Postemergence, scale 0 to 100 (0 no effect, 100 complete control)
[16] = 62 g ai/ha, Preemergence, scale 0 to 100 (0 no effect, 100 complete control)
[17] = 125 g ai/ha, Postemergence, scale 0 to 100 (0 no effect, 100 complete control)
[18] = 125 g ai/ha, Preemergence, scale 0 to 100 (0 no effect, 100 complete control)
[19] = Postemergence, 16 g ai/ha, visual, scale 0 no effect to 100 complete control
[20] = Postemergence, 31 g ai/ha, visual, scale 0 no effect to 100 complete control
[21] = Preemergence, 16 g ai/ha, scale 0 to 100, 0 no effect, 100 complete control
[22] = Preemergence, 31 g ai/ha, scale 0 to 100, 0 no effect, 100 complete control
[23] = 62 g ai/ha, scale 0 to 100 (0 no effect, 100 complete control)
[24] = 125 g ai/ha, scale 0 to 100 (0 no effect, 100 complete control)
[25] = 16 g ai/ha, scale 0 to 100, 0 no effect, 100 complete control
[26] = 31 g ai/ha, scale 0 to 100, 0 no effect, 100 complete control

Compound: CCC(=O)Oc1c(C)nn(C)c(=O)c1-c1c(C)sc2ccc(Cl)cc12 [Compound 109]
- Plant response rating, Arrowleaf Sida [1, 15]: 60
- Plant response rating, Arrowleaf Sida [1, 16]: 30
- Plant response rating, Arrowleaf Sida [1, 17]: 80
- Plant response rating, Arrowleaf Sida [1, 18]: 35
- Plant response rating, Arrowleaf Sida [1, 19]: 50
- Plant response rating, Arrowleaf Sida [1, 20]: 65
- Plant response rating, Arrowleaf Sida [1, 21]: 40
- Plant response rating, Arrowleaf Sida [1, 22]: 35
- Plant response rating, Barnyardgrass [2, 15]: 30
- Plant response rating, Barnyardgrass [2, 16]: 10
- Plant response rating, Barnyardgrass [2, 17]: 40
- Plant response rating, Barnyardgrass [2, 18]: 25
- Plant response rating, Barnyardgrass [2, 19]: 25
- Plant response rating, Barnyardgrass [2, 20]: 30
- Plant response rating, Barnyardgrass [2, 21]: 0
- Plant response rating, Barnyardgrass [2, 22]: 0
- Plant response rating, Corn (corn (Zea mays); [15]): 10
- Plant response rating, Corn (corn (Zea mays); [16]): 0
- Plant response rating, Corn (corn (Zea mays); [17]): 20
- Plant response rating, Corn (corn (Zea mays); [18]): 0
- Plant response rating, Corn (corn (Zea mays); [19]): 0
- Plant response rating, Corn (corn (Zea mays); [20]): 0
- Plant response rating, Corn (corn (Zea mays); [21]): 0
- Plant response rating, Corn (corn (Zea mays); [22]): 0
- Plant response rating, Crabgrass, Brazil [3, 15]: 30
- Plant response rating, Crabgrass, Brazil [3, 16]: 40
- Plant response rating, Crabgrass, Brazil [3, 17]: 50
- Plant response rating, Crabgrass, Brazil [3, 18]: 70
- Plant response rating, Crabgrass, Brazil [3, 19]: 10
- Plant response rating, Crabgrass, Brazil [3, 20]: 40
- Plant response rating, Crabgrass, Brazil [3, 21]: 70
- Plant response rating, Crabgrass, Brazil [3, 22]: 60
- Plant response rating, Dayflower, VA [4, 15]: 50
- Plant response rating, Dayflower, VA [4, 16]: 25
- Plant response rating, Dayflower, VA [4, 17]: 60
- Plant response rating, Dayflower, VA [4, 18]: 25
- Plant response rating, Dayflower, VA [4, 19]: 30
- Plant response rating, Dayflower, VA [4, 20]: 30
- Plant response rating, Dayflower, VA [4, 21]: 0
- Plant response rating, Dayflower, VA [4, 22]: 25
- Plant response rating, Field Bindweed [5, 15]: 95
- Plant response rating, Field Bindweed [5, 16]: 40
- Plant response rating, Field Bindweed [5, 17]: 90
- Plant response rating, Field Bindweed [5, 18]: 80
- Plant response rating, Field Bindweed [5, 19]: 75
- Plant response rating, Field Bindweed [5, 20]: 80
- Plant response rating, Field Bindweed [5, 21]: 0
- Plant response rating, Field Bindweed [5, 22]: 0
- Plant response rating, Foxtail, Green [6, 23]: 40
- Plant response rating, Foxtail, Green [6, 24]: 60
- Plant response rating, Foxtail, Green [6, 25]: 0
- Plant response rating, Foxtail, Green [6, 26]: 0
- Plant response rating, Goosegrass [7, 23]: 25
- Plant response rating, Goosegrass [7, 24]: 50
- Plant response rating, Goosegrass [7, 25]: 0
- Plant response rating, Goosegrass [7, 26]: 20
- Plant response rating, Horseweed [8, 15]: 90
- Plant response rating, Horseweed [8, 16]: 100
- Plant response rating, Horseweed [8, 17]: 85
- Plant response rating, Horseweed [8, 18]: 100
- Plant response rating, Horseweed [8, 19]: 60
- Plant response rating, Horseweed [8, 20]: 80
- Plant response rating, Horseweed [8, 21]: 0
- Plant response rating, Horseweed [8, 22]: 100
- Plant response rating, Lambsquarters [9, 24]: 98
- Plant response rating, Lambsquarters [9, 25]: 0
- Plant response rating, Lambsquarters [9, 26]: 95
- Plant response rating, Nightshade [10, 24]: 98
- Plant response rating, Nightshade [10, 25]: 25
- Plant response rating, Nightshade [10, 26]: 65
- Plant response rating, Panicum, Fall [11, 15]: 65
- Plant response rating, Panicum, Fall [11, 17]: 80
- Plant response rating, Panicum, Fall [11, 18]: 95
- Plant response rating, Panicum, Fall [11, 19]: 50
- Plant response rating, Panicum, Fall [11, 20]: 60
- Plant response rating, Panicum, Fall [11, 21]: 75
- Plant response rating, Panicum, Fall [11, 22]: 80
- Plant response rating, Pigweed, Palmer [12, 15]: 65
- Plant response rating, Pigweed, Palmer [12, 17]: 100
- Plant response rating, Pigweed, Palmer [12, 18]: 85
- Plant response rating, Pigweed, Palmer [12, 19]: 60
- Plant response rating, Pigweed, Palmer [12, 20]: 50
- Plant response rating, Pigweed, Palmer [12, 21]: 0
- Plant response rating, Pigweed, Palmer [12, 22]: 20
- Plant response rating, Ragweed [13, 15]: 90
- Plant response rating, Ragweed [13, 17]: 95
- Plant response rating, Ragweed [13, 18]: 100
- Plant response rating, Ragweed [13, 19]: 80
- Plant response rating, Ragweed [13, 20]: 85
- Plant response rating, Ragweed [13, 21]: 0
- Plant response rating, Ragweed [13, 22]: 5
- Plant response rating, Soybean (soybean (Glycine max); [17]): 20
- Plant response rating, Soybean (soybean (Glycine max); [18]): 0
- Plant response rating, Soybean (soybean (Glycine max); [19]): 0
- Plant response rating, Soybean (soybean (Glycine max); [20]): 0
- Plant response rating, Soybean (soybean (Glycine max); [21]): 0
- Plant response rating, Soybean (soybean (Glycine max); [22]): 0
- Plant response rating, Surinam Grass [14, 24]: 40
- Plant response rating, Surinam Grass [14, 25]: 0
- Plant response rating, Surinam Grass [14, 26]: 30
